Data on two compounds can be found in patent publication US12377060B2, “Methods and compositions for preventing or treating tissue calcification” (Epizon Pharma, Inc., priority 2018, dated 2025).

Assay [1] has as its system ESRD subjects on stable hemodialysis. Put plainly: Example 1: contemplated administration of MK-7 and/or MKH2-7 to ESRD subjects on stable hemodialysis, biomarkers of tissue calcification. It is filed as in vivo, human. Particulars: 10 mg, 25 mg or 50 mg once daily orally. Here is the method: This example describes the administration of MK-7 and/or MKH2-7 to a subject with ESRD and/or on stable hemodialysis. It is contemplated that administration of MK-7 and/or MKH2-7 will result in a change in aortic compliance (via plethysmography), vascular calcification and certain biomarker levels indicative of slowing the progression of, arresting, or reversing tissue calcification.
ESRD subjects on stable hemodialysis orally receive MK-7 and/or MKH2-7 at 10 mg, 25 mg or 50 mg once daily for least 2 weeks, 4 weeks, 6 weeks, 8 weeks, 3 months, 6 months, 1 year, or indefinitely. The dosage form is a 10 mg or 25 mg soft-gel capsule. Two 25 mg capsules are administered once daily to the 50 mg dosage cohort.
Coronary arterial calcium scores (CAC) are used to estimate the extent of calcification of thoracic arteries. A high CAC score is indicative of calcification, and treatment has the aim of arresting the long term increase in CAC score, or reversing it, or slowing the rate of increase. Aortic plethysmography also is used to measure arterial compliance, which decreases as calcification increases. Pulse wave velocity (PWV) also is measured to assess arterial compliance. The foregoing measures are useful in estimating the utility of treatments intended to prevent, slow the progression of, arrest or reverse vascular calcification. These measurements are used pre- and post-treatment with MK-7 and/or MKH2-7 to assess treatment value.
Further, several biomarkers are assessed to determine the efficacy of MK-7 and/or MKH2-7 at the three dose levels. Exemplary biomarkers include PIVKA-II; uncarboxylated and total Matrix Gla Protein (MGP); uncarboxylated, carboxylated and total osteocalcin protein; uncarboxylated, carboxylated and total Protein C, osteoprotegerin, Fetuin A, and hs-CRP. Blood samples are obtained to measure the biomarkers, most conveniently during patient visits for hemodialysis.
It is contemplated that administration of MK-7 and/or MKH2-7 can result in (i) an increase in […], osteoprotegerin, or Fetuin A, which is indicative of slowing the progression of, arresting or reversing tissue calcification, (ii) a decrease in uncarboxylated MGP, uncarboxylated osteocalcin, and/or uncarboxylated Protein C, which is indicative of slowing the progression of, arresting or reversing tissue calcification, and/or (iii) a decrease in hs-CRP, which is indicative of slowing the progression of, arresting or reversing tissue calcification and/or reduced inflammation.
It is contemplated that, following the daily administration of 10 mg, 25 mg or 50 mg MK-7 and/or MKH2-7, at least one of PIVKA-II, under-carboxylated Matrix Gla Protein (MGP), uncarboxylated osteocalcin protein, uncarboxylated Protein C, osteoprotegerin, Fetuin A, and hs-CRP will show a change indicative of slowing the progression of, arresting or reversing tissue calcification.

Assay [2] has as its system osteocalcin. Particulars: 100-200 μg/d for 4 to 12 weeks; cited from earlier work.

Structures are written as SMILES.

With `CC(C)=CCC/C(C)=C/CC/C(C)=C/CC/C(C)=C/CC/C(C)=C/CC/C(C)=C/CC/C(C)=C/Cc1c(C)c(O)c2ccccc2c1O` [MKH2-7, 2-[(2E,6E,10E,14E,18E,22E)-3,7,11,15,19,23,27-heptamethyloctacosa-2,6,10,14,18,22,26-heptaenyl]-3-methylnaphthalene-1,4-diol], in assay [1], the “change in Fetuin A” value is listed as “increase”, the “change in hs-CRP” value is listed as “decrease”, the change in osteoprotegerin entry is “increase” and the “change in uncarboxylated MGP” value is reported as “decrease”. Moreover, in assay [1], the “change in uncarboxylated Protein C” value is recorded as “decrease” and the “change in uncarboxylated osteocalcin” value is “decrease”.

In the case of `CC(C)=CCC/C(C)=C/CC/C(C)=C/CC/C(C)=C/CC/C(C)=C/CC/C(C)=C/CC/C(C)=C/CC1=C(C)C(=O)c2ccccc2C1=O` [MK-7, 2-[(2E,6E,10E,14E,18E,22E)-3,7,11,15,19,23,27-heptamethyloctacosa-2,6,10,14,18,22,26-heptaenyl]-3-methylnaphthalene-1,4-dione], in assay [1], the “change in Fetuin A” value was “increase”, the “change in hs-CRP” value was “decrease”, the change in osteoprotegerin result was “increase” and the “change in uncarboxylated MGP” value is given as “decrease”. In assay [1], the “change in uncarboxylated Protein C” value is listed as “decrease” and the “change in uncarboxylated osteocalcin” value is on record as “decrease”. In addition, the “ratio of carboxylated to undercarboxylated osteocalcin” value in assay [2] was “significantly and in a dose-dependent manner”.
